# Tested on: Mycobacterium tuberculosis
# Assay: Antimycobacterial activity against log phase culture of Mycobacterium tuberculosis H37Rv by agar dilution method
# Format: functional
row,Structure (SMILES),MIC [µg/mL]
1,O=C1c2cccc3cccc(c23)[C@]12N[C@@H](c1ccccc1)[C@H](c1ccc(Cl)cc1)[C@]21CCC/C(=C\c2ccc(Cl)cc2)C1=O,6.25
2,O=C1c2cccc3cccc(c23)[C@]12N1CCC[C@H]1[C@H](c1ccc(Cl)cc1)[C@]21CCC/C(=C\c2ccc(Cl)cc2)C1=O,1.78
3,Cc1ccc(/C=C2\CCC[C@@]3(C2=O)[C@@H](c2ccc(C)cc2)[C@H](c2ccccc2)N[C@@]32C(=O)c3cccc4cccc2c34)cc1,6.25
4,Cc1ccc(/C=C2\CCC[C@@]3(C2=O)[C@@H](c2ccc(C)cc2)[C@@H]2CCCN2[C@@]32C(=O)c3cccc4cccc2c34)cc1,6.25
5,COc1ccc(/C=C2\CCC[C@@]3(C2=O)[C@@H](c2ccc(OC)cc2)CN(C)[C@@]32C(=O)c3cccc4cccc2c34)cc1,25
6,O=C1c2cccc3cccc(c23)[C@]12N1CCC[C@H]1[C@H](c1ccccc1Cl)[C@]21CCC/C(=C\c2ccccc2Cl)C1=O,3.13
7,O=C1c2cccc3cccc(c23)[C@]12N[C@@H](c1ccccc1)[C@H](c1ccccc1Cl)[C@]21CCC/C(=C\c2ccccc2Cl)C1=O,0.78
8,O=C1c2cccc3cccc(c23)[C@]12N1CSC[C@H]1[C@H](c1ccc(F)cc1)[C@]21CCC/C(=C\c2ccc(F)cc2)C1=O,1.76
9,CN1C[C@H](c2ccc(Cl)cc2)[C@]2(CCC/C(=C\c3ccc(Cl)cc3)C2=O)[C@]12C(=O)c1cccc3cccc2c13,12.5
10,CN1C[C@H](c2ccccc2)[C@]2(CCC/C(=C\c3ccccc3)C2=O)[C@]12C(=O)c1cccc3cccc2c13,12.5
11,O=C1c2cccc3cccc(c23)[C@]12N1CSC[C@H]1[C@H](c1ccc(Cl)cc1)[C@]21CCC/C(=C\c2ccc(Cl)cc2)C1=O,6.25
12,O=C1c2cccc3cccc(c23)[C@]12N[C@@H](c1ccccc1)[C@H](c1ccc(F)cc1)[C@]21CCC/C(=C\c2ccc(F)cc2)C1=O,6.25
13,Cc1ccccc1/C=C1\CCC[C@@]2(C1=O)[C@@H](c1ccccc1C)[C@@H]1CSCN1[C@@]21C(=O)c2cccc3cccc1c23,0.78
14,Cc1ccc(/C=C2\CCC[C@@]3(C2=O)[C@@H](c2ccc(C)cc2)CN(C)[C@@]32C(=O)c3cccc4cccc2c34)cc1,25
15,Cc1ccccc1/C=C1\CCC[C@@]2(C1=O)[C@@H](c1ccccc1C)CN(C)[C@@]21C(=O)c2cccc3cccc1c23,12.5
16,CN1C[C@H](c2cccc(F)c2)[C@]2(CCC/C(=C\c3cccc(F)c3)C2=O)[C@]12C(=O)c1cccc3cccc2c13,12.5
17,O=C1c2cccc3cccc(c23)[C@]12N[C@@H](c1ccccc1)[C@H](c1ccccc1)[C@]21CCC/C(=C\c2ccccc2)C1=O,3.13
18,O=C1c2cccc3cccc(c23)[C@]12N[C@@H](c1ccccc1)[C@H](c1ccc(Cl)cc1Cl)[C@]21CCC/C(=C\c2ccc(Cl)cc2Cl)C1=O,0.4
19,O=C1c2cccc3cccc(c23)[C@]12N1CSC[C@H]1[C@H](c1ccccc1Cl)[C@]21CCC/C(=C\c2ccccc2Cl)C1=O,0.78
20,O=C1c2cccc3cccc(c23)[C@]12N1CCC[C@H]1[C@H](c1ccc(F)cc1)[C@]21CCC/C(=C\c2ccc(F)cc2)C1=O,1.78
21,CN1C[C@H](c2ccc(Cl)cc2Cl)[C@]2(CCC/C(=C\c3ccc(Cl)cc3Cl)C2=O)[C@]12C(=O)c1cccc3cccc2c13,3.13
22,Cc1ccccc1/C=C1\CCC[C@@]2(C1=O)[C@@H](c1ccccc1C)[C@H](c1ccccc1)N[C@@]21C(=O)c2cccc3cccc1c23,1.78
23,O=C1c2cccc3cccc(c23)[C@]12N1CSC[C@H]1[C@H](c1ccc(Cl)cc1Cl)[C@]21CCC/C(=C\c2ccc(Cl)cc2Cl)C1=O,0.4
24,CN1C[C@H](c2cccc3ccccc23)[C@]2(CCC/C(=C\c3cccc4ccccc34)C2=O)[C@]12C(=O)c1cccc3cccc2c13,6.25
25,Cc1ccc(/C=C2\CCC[C@@]3(C2=O)[C@@H](c2ccc(C)cc2)[C@@H]2CSCN2[C@@]32C(=O)c3cccc4cccc2c34)cc1,6.25
26,O=C1c2cccc3cccc(c23)[C@]12N1CCC[C@H]1[C@H](c1ccccc1)[C@]21CCC/C(=C\c2ccccc2)C1=O,12.5
27,O=C1c2cccc3cccc(c23)[C@]12N1CSC[C@H]1[C@H](c1ccccc1)[C@]21CCC/C(=C\c2ccccc2)C1=O,6.25
28,CN1C[C@H](c2ccccc2Cl)[C@]2(CCC/C(=C\c3ccccc3Cl)C2=O)[C@]12C(=O)c1cccc3cccc2c13,6.25
